Experimental data taken from patent US9999619B2, “Piperidin-4-yl azetidine derivatives as JAK1 inhibitors” (Incyte Corporation, priority 2010, dated 2018).
Structures can show the parent of a compound that is named as a salt.

Assays:
Assay type in all cases: biochemical
[1] = molecular target: human JAK1 (a.a. 837-1142) (Homo sapiens, UniProt P23458); test: In vitro JAK kinase assay (HTRF, phosphorylation of a biotinylated peptide), JAK1; conditions: measured at 1 mM ATP
Method in brief: (§1)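 Phosphorylation of a biotinylated peptide by purified His-tagged JAK catalytic domains (insect-cell baculovirus expression) ran 1 hr at room temperature. After stopping with EDTA, Eu-Py20 and SA-APC were bound for 40 minutes and HTRF measured.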

[2] = molecular target: human JAK1 (a.a. 837-1142); test: as above; conditions: ratio of JAK2 IC50 to JAK1 IC50, measured at 1 mM ATP
Method in brief: as §1

Jak2 (a.a. 828-1132) = Jak2 (a.a. 828-1132) (Homo sapiens (Human), UniProt O60674); test: In vitro JAK kinase assay (HTRF, phosphorylation of a biotinylated peptide), JAK2; conditions: measured at 1 mM ATP
Method in brief: as §1

Sequence of Jak2 (a.a. 828-1132) (O60674 828-1132): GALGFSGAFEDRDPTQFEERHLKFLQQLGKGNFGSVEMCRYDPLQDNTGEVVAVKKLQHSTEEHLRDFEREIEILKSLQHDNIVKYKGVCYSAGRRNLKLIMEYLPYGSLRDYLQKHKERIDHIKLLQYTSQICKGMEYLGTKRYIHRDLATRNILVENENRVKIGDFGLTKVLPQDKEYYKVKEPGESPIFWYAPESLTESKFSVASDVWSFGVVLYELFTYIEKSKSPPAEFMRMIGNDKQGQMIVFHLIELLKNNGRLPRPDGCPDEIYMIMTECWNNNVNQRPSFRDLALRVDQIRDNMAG

IC50 [1]	IC50 Ratio JAK2/JAK1 [2]	IC50 (Jak2 (a.a. 828-1132))	Structure (SMILES)
≤ 5 nM	4.7	≤ 10 nM	N#CCC1(n2cc(-c3c(F)cnc4[nH]ccc34)cn2)CN(C2CCN(C(=O)c3ccc(O)c(F)c3)CC2)C1 [Example 322, {1-[1-(3-fluoro-4-hydroxybenzoyl)piperidin-4-yl]-3-[4-(5-fluoro-1H-pyrrolo[2,3-b]pyridin-4-yl)-1H-pyrazol-1-yl]azetidin-3-yl}acetonitrile]
5 to 20 nM	9.5	50 to 100 nM	N#CCC1(n2ccc(-c3ncnc4[nH]ccc34)c2)CN(C2CCN(C(=O)c3ccc(C#N)cc3F)CC2)C1 [Example 264, 4-[(4-{3-(cyanomethyl)-3-[3-(7H-pyrrolo[2,3-d]pyrimidin-4-yl)-1H-pyrrol-1-yl]azetidin-1-yl}piperidin-1-yl)carbonyl]-3-fluorobenzonitrile]
5 to 20 nM	1.0	10 to 50 nM	N#CCC1(n2cc(-c3ncnc4[nH]ccc34)cn2)CN(C2CCN(C(=O)c3cc4ccc(C(F)(F)F)cc4s3)CC2)C1 [Example 94, [3-[4-(7H-pyrrolo[2,3-d]pyrimidin-4-yl)-1H-pyrazol-1-yl]-1-(1-{[6-(trifluoromethyl)-1-benzothien-2-yl]carbonyl}piperidin-4-yl)azetidin-3-yl]acetonitrile]
≤ 5 nM	3.4	≤ 10 nM	N#CCC1(n2cc(-c3ncnc4[nH]ccc34)cn2)CN(C2CCN(C(=O)c3ccsc3Br)CC2)C1 [Example 75, {1-{1-[(2-bromo-3-thienyl)carbonyl]piperidin-4-yl}-3-[4-(7H-pyrrolo[2,3-d]pyrimidin-4-yl)-1H-pyrazol-1-yl]azetidin-3-yl}acetonitrile]
≤ 5 nM	9.0	≤ 10 nM	COc1ccccc1NC(=O)N1CCC(N2CC(CC#N)(n3ccc(-c4ncnc5[nH]ccc45)c3)C2)CC1 [Example 288, 4-{3-(cyanomethyl)-3-[3-(7H-pyrrolo[2,3-d]pyrimidin-4-yl)-1H-pyrrol-1-yl]azetidin-1-yl}-N-(2-methoxyphenyl)piperidine-1-carboxamide]
≤ 5 nM	5.7	10 to 50 nM	N#CCC1(n2cc(-c3ncnc4[nH]ccc34)cn2)CN(C2CCN(Cc3cc(F)cc(F)c3)CC2)C1 [Example 215, {1-[1-(3,5-difluorobenzyl)piperidin-4-yl]-3-[4-(7H-pyrrolo[2,3-d]pyrimidin-4-yl)-1H-pyrazol-1-yl]azetidin-3-yl}acetonitrile]
5 to 20 nM	1.7	10 to 50 nM	N#CCC1(n2cc(-c3c(F)cnc4[nH]ccc34)cn2)CN(C2CCN(C(=O)c3cc(C(F)(F)F)ncc3Cl)CC2)C1 [Example 326, {1-{1-[5-chloro-2-(trifluoromethyl)isonicotinoyl]piperidin-4-yl}-3-[4-(5-fluoro-1H-pyrrolo[2,3-b]pyridin-4-yl)-1H-pyrazol-1-yl]azetidin-3-yl}acetonitrile]
≤ 5 nM	14.0	10 to 50 nM	N#CCC1(n2cc(-c3ncnc4[nH]ccc34)cn2)CN(C2CCN(C(=O)c3ccc(-c4ccc(C#N)c(F)c4)c(F)c3)CC2)C1 [Example 119, 4′-[(4-{3-(cyanomethyl)-3-[4-(7H-pyrrolo[2,3-d]pyrimidin-4-yl)-1H-pyrazol-1-yl]azetidin-1-yl}piperidin-1-yl)carbonyl]-2′,3-difluorobiphenyl-4-carbonitrile]
≤ 5 nM	9.8	10 to 50 nM	N#CCC1(n2ccc(-c3ncnc4[nH]ccc34)c2)CN(C2CCN(C(=O)c3ccc(F)c(F)c3)CC2)C1 [Example 277, {1-[1-(3,4-difluorobenzoyl)piperidin-4-yl]-3-[3-(7H-pyrrolo[2,3-d]pyrimidin-4-yl)-1H-pyrrol-1-yl]azetidin-3-yl}acetonitrile]
≤ 5 nM	5.5	≤ 10 nM	N#CCC1(n2cc(-c3ncnc4[nH]ccc34)cn2)CN(C2CCN(Cc3c(C(F)(F)F)ccc(Cl)c3F)CC2)C1 [Example 236, {1-{1-[3-chloro-2-fluoro-6-(trifluoromethyl)benzyl]piperidin-4-yl}-3-[4-(7H-pyrrolo[2,3-d]pyrimidin-4-yl)-1H-pyrazol-1-yl]azetidin-3-yl}acetonitrile]
5 to 20 nM	3.2	10 to 50 nM	N#CCC1(n2cc(-c3ncnc4[nH]ccc34)cn2)CN(C2CCN(C(=O)c3cccc(C(F)(F)F)c3)CC2)C1 [Example 22, (3-[4-(7H-pyrrolo[2,3-d]pyrimidin-4-yl)-1H-pyrazol-1-yl]-1-{1-[3-(trifluoromethyl)benzoyl]piperidin-4-yl}azetidin-3-yl)acetonitrile]
≤ 5 nM	1.9	≤ 10 nM	COc1cccc(C(=O)N2CCC(N3CC(CC#N)(n4cc(-c5ncnc6[nH]ccc56)cn4)C3)CC2)c1 [Example 31, {1-[1-(3-methoxybenzoyl)piperidin-4-yl]-3-[4-(7H-pyrrolo[2,3-d]pyrimidin-4-yl)-1H-pyrazol-1-yl]azetidin-3-yl}acetonitrile]
≤ 5 nM	65.3	50 to 100 nM	CNCc1cc(C(=O)N2CCC(N3CC(CC#N)(n4cc(-c5ncnc6[nH]ccc56)cn4)C3)CC2)nc(C(F)(F)F)n1 [Example 371, {1-(1-{[6-[(methylamino)methyl]-2-(trifluoromethyl)pyrimidin-4-yl]carbonyl}piperidin-4-yl)-3-[4-(7H-pyrrolo[2,3-d]pyrimidin-4-yl)-1H-pyrazol-1-yl]azetidin-3-yl}acetonitrile trifluoroacetate salt]
≤ 5 nM	18.8	10 to 50 nM	N#CCC1(n2cc(-c3c(F)cnc4[nH]ccc34)cn2)CN(C2CCN(C(=O)c3cncc(C(F)(F)F)n3)CC2)C1 [Example 352, [3-[4-(5-Fluoro-1H-pyrrolo[2,3-b]pyridin-4-yl)-1H-pyrazol-1-yl]-1-(1-{[6-(trifluoromethyl)pyrazin-2-yl]carbonyl}piperidin-4-yl)azetidin-3-yl]acetonitrile]
≤ 5 nM	2.7	≤ 10 nM	N#CCC1(n2cc(-c3ncnc4[nH]ccc34)cn2)CN(C2CCN(C(=O)c3cc4cccc(C(F)(F)F)c4s3)CC2)C1 [Example 95, [3-[4-(7H-pyrrolo[2,3-d]pyrimidin-4-yl)-1H-pyrazol-1-yl]-1-(1-{[7-(trifluoromethyl)-1-benzothien-2-yl]carbonyl}piperidin-4-yl)azetidin-3-yl]acetonitrile]
5 to 20 nM	9.1	50 to 100 nM	N#CCC1(n2cc(-c3ncnc4[nH]ccc34)cn2)CN(C2CCN(C(=O)c3cc(F)c(F)c(F)c3F)CC2)C1 [Example 54, {3-[4-(7H-pyrrolo[2,3-d]pyrimidin-4-yl)-1H-pyrazol-1-yl]-1-[1-(2,3,4,5-tetrafluorobenzoyl)piperidin-4-yl]azetidin-3-yl}acetonitrile]
≤ 5 nM	4.0	10 to 50 nM	N#CCC1(n2cc(-c3c(F)cnc4[nH]ccc34)cn2)CN(C2CCN(C(=O)c3ccc(F)cn3)CC2)C1 [Example 319, {1-{1-[(5-fluoropyridin-2-yl)carbonyl]piperidin-4-yl}-3-[4-(5-fluoro-1H-pyrrolo[2,3-b]pyridin-4-yl)-1H-pyrazol-1-yl]azetidin-3-yl}acetonitrile]
